Experimental data published in paper PMC12472391, “Borylated Five-Membered Ring Iminosugars: Synthesis, Spectroscopic Analysis, and Biological Evaluation for Glycosidase Inhibition and Anticancer Properties for Application in Boron Neutron Capture Therapy (BNCT)—Part 1” (Pharmaceuticals, 2025).

How the values were obtained:
[1] = Appearance: 1 mL of water added to 1 mg of solid, and mixed; assay type: physicochemical
β-D-glucosidase (almond) = experiment: Glycosidase inhibition, Table 7; assay type: biochemical; conditions: 1 mg/mL aqueous solution added, 27 °C, run in water
Experimental: (§1) All enzymes and para-nitrophenyl substrates were purchased from Sigma. Enzymes were assayed at 27 °C in citric acid (0.1M)/disodium hydrogen phosphate (0.2 M) buffers at the optimum pH for the enzyme. The incubation mixture consisted of […] enzyme solution, […] of 1 mg/mL aqueous solution of extract, and […] of the appropriate 5 mM para-nitrophenyl substrate made up in buffer at the optimum pH for the enzyme. The reactions were stopped by the addition of […] 0.4 M glycine (pH 10.4) during the exponential phase of the reaction, which had been determined at the beginning using uninhibited assays in which water replaced the inhibitor. Final absorbances were read at 405 nm using a Versamax microplate reader (Molecular Devices). Assays were carried out in triplicate, and the values given are the means of the three replicates per assay. All reactions run in water.

[2] = test system: β-D-glucuronidase (bovine liver); experiment: Glycosidase inhibition, Table 7; assay type: biochemical; conditions: 1 mg/mL aqueous solution added, 27 °C, run in water
Experimental: as §1

α-D-glucosidase (yeast) = target: T1, α-D-glucosidase (yeast) (Saccharomyces cerevisiae, UniProt P53341); experiment: Glycosidase inhibition, Table 7; assay type: biochemical; conditions: 1 mg/mL aqueous solution added, 27 °C, run in water, read-out: α-D-Glucosidase Yeast, percentage inhibition
T1 construct: purchased Sigma
Experimental: as §1

[3] = test system: A2780 ovarian carcinoma cells; experiment: Cancer screening, MTT growth inhibition; assay type: cell-based; conditions: Homo sapiens, 72-h exposure; for inhibition at 25 µM: A2780, 25 µM, read-out: A2780 Ovarian Carcinoma, Percentage (%) Cell Growth Inhibition in response to 25 µM of Drug; for GI50: A2780, dose response, read-out: A2780 Ovarian Carcinoma, GI50 = Concentration (µM) that inhibits cell growth by 50%
Experimental: (§2) Two assays were run: the dose screen to ascertain cell growth inhibition in response to 25 µM of drug (on a blue background) and the dose response (GI50) (on a green background). For a discussion of BNCT as a radiotherapeutic modality, a rationalisation is provided here.
(§3) All test agents were prepared as stock solutions (20 mM) in dimethyl sulfoxide (DMSO) and stored at −20 °C. Cell lines used in the study included HT29, (colorectal carcinoma); U87, SJ-G2, (glioblastoma); MCF-7, (breast carcinoma); A2780 (ovarian carcinoma); H460 (lung carcinoma); A431 (skin carcinoma); Du145 (prostate carcinoma); BE2-C (neuroblastoma) and MiaPaCa-2 (pancreatic carcinoma); together with the one non-tumour derived normal breast cell line (MCF10A). All cell lines were incubated in a humidified atmosphere 5% CO2 at 37 °C. The cancer cell lines were maintained in Dulbecco’s modified Eagle’s medium (DMEM; Sigma, Australia) supplemented with foetal bovine serum (10%), sodium pyruvate (10 mM), penicillin (100 IUmL^−1), streptomycin (100 µg mL^−1), and L-glutamine (2 mM).
(§4) Growth inhibition was determined by plating cells in duplicate in medium (100 µL) at a density of 2500–4000 cells per well in 96-well plates. On day 0 (24 h after plating), when the cells are in logarithmic growth, medium (100 µL) with or without the test agent was added to each well. After a 72-h drug exposure, growth inhibitory effects were evaluated using the MTT (3-(4,5-dimethyltiazol-2-yl)-2,5-diphenyltetrazolium bromide) assay and absorbance read at 540 nm. The percentage growth inhibition was calculated at a fixed concentration of 25 µM, based on the difference between the optical density values on day 0 and those at the end of drug exposure. Each data point is the mean ± the standard error of the mean (SEM) calculated from three replicates, which were performed on separate occasions and separate cell line passages.

U87 glioblastoma cells = experiment: Cancer screening, MTT growth inhibition; assay type: cell-based; conditions: 72-h exposure, read-out: U87 Glioblastoma, Percentage (%) Cell Growth Inhibition in response to 25 µM of Drug
Experimental: as §2, §3, §4

[4] = test system: MCF-7 breast carcinoma cells; experiment: Cancer screening, MTT growth inhibition; assay type: cell-based; conditions: Homo sapiens, MCF7, 72-h exposure, read-out: MCF-7 Breast Carcinoma, Percentage (%) Cell Growth Inhibition in response to 25 µM of Drug
Experimental: as §2, §3, §4

[5] = test system: MIA-Pa-Ca2 pancreatic carcinoma cells; experiment: Cancer screening, MTT growth inhibition; assay type: cell-based; conditions: Homo sapiens, 72-h exposure; for inhibition at 25 µM: MIA PaCa-2, 25 µM, read-out: MIA-Pa-Ca2 Pancreatic Carcinoma, Percentage (%) Cell Growth Inhibition in response to 25 µM of Drug; for GI50: MIA PaCa-2, dose response, read-out: MIA-Pa-Ca2 Pancreatic Carcinoma, GI50 = Concentration (µM) that inhibits cell growth by 50%
Experimental: as §2, §3, §4

[6] = test system: BE2-C neuroblastoma cells; experiment: Cancer screening, MTT growth inhibition; assay type: cell-based; conditions: Homo sapiens, BE(2)-C, 72-h exposure, read-out: BE2-C Neuroblastoma, Percentage (%) Cell Growth Inhibition in response to 25 µM of Drug
Experimental: as §2, §3, §4

[7] = test system: MCF10A normal breast cells; experiment: Cancer screening, MTT growth inhibition; assay type: cell-based; conditions: Homo sapiens, MCF-10A, 72-h exposure; for inhibition at 25 µM: read-out: MCF10A Breast (Normal), Percentage (%) Cell Growth Inhibition in response to 25 µM of Drug; for GI50: dose response, read-out: MCF10A Breast (Normal), GI50 = Concentration (µM) that inhibits cell growth by 50%
Experimental: as §2, §3
The non-cancer MCF10A cell line was maintained in DMEM/F12 (1:1) cell culture media, 5% heat inactivated horse serum, supplemented with penicillin (50 IUmL^−1), streptomycin (50 µg mL^−1), HEPES (20 mM), L-glutamine (2 mM), epidermal growth factor (20 ng mL^−1), hydrocortisone (500 ng mL^−1), cholera toxin (100 ng mL^−1), and insulin (10 mg mL^−1).
as §4

T1 sequence (P53341 whole entry): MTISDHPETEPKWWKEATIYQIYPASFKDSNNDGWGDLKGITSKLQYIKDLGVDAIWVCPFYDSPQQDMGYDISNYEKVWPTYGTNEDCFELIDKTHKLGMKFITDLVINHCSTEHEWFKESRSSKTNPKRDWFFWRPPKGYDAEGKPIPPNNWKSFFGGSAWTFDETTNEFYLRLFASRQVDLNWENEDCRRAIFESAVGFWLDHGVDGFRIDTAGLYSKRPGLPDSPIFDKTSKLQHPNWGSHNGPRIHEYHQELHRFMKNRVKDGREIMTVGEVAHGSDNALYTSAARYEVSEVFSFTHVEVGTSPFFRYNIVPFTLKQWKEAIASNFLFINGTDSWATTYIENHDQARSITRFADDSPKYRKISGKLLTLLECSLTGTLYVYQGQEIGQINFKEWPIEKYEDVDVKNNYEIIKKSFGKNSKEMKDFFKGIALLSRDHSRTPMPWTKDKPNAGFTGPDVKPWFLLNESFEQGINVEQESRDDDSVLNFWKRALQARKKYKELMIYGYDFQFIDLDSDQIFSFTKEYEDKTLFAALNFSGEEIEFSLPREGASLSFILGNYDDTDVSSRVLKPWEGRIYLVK

| Structure (SMILES) | Appearance [1] | β-D-Glucosidase Almond, percentage inhibition (β-D-glucosidase (almond)) [%] | β-D-Glucuronidase Bovine Liver, percentage inhibition [2] [%] | inhibition at 1000 µg/mL (stock) (α-D-glucosidase (yeast)) [%] | inhibition at 25 µM [3] [%] | inhibition at 25 µM (U87 glioblastoma cells) [%] | inhibition at 25 µM [4] [%] | inhibition at 25 µM [5] [%] | inhibition at 25 µM [6] [%] | inhibition at 25 µM [7] [%] | GI50 [3] [µM] | GI50 [5] [µM] | GI50 [7] [µM] |
| --- | --- | --- | --- | --- | --- | --- | --- | --- | --- | --- | --- | --- | --- |
| CC1(C)O[C@H]2O[C@H]3[C@@H]([C@H]2O1)N(Cc1ccccc1)C[C@H]3O [Compound 3, N-Benzyl-3,6-dideoxy-3,6-imino-1,2-O-isopropylidene-α-D-gulofuranose] | In solution | −8.3 | −0.2 | -89 | 11 | 5 | 7 | 7 | 10 | 9 | – | – | – |
| CC1(C)O[C@H]2O[C@H]3[C@@H]([C@H]2O1)N(Cc1ccc(B2OC(C)(C)C(C)(C)O2)cc1)C[C@H]3O [para 6, N-(4-Methylphenylboronic acid pinacol ester)-3,6-dideoxy-3,6-imino-1,2-O-isopropylidene-α-D-gulofuranose] | Completely insoluble | – | – | – | 14 | 7 | 3 | 9 | 5 | 14 | – | – | – |
| OC[C@H](O)[C@@H]1[C@H](O)[C@H](O)CN1Cc1ccc(B(O)O)cc1 [para 8, N-(4-Methylphenylboronic acid)-1,4-dideoxy-1,4-imino-L-gulitol] | In solution | 23.9 | 2.4 | 9.7 | 14 ± 7 | – | – | 11 ± 1 | – | 1 | > 50 | > 50 | > 50 |
| OB(O)c1ccc(CN2CC(O)C3OC(O)C(O)C32)cc1 [para 7, N-(4-Methylphenylboronic acid)-3,6-dideoxy-3,6-imino-D-gulofuranose] | In solution | 68.1 | 1.1 | 4.2 | 27 ± 2 | – | – | 14 | – | 4 ± 2 | > 50 | > 50 | > 50 |
| OC[C@H](O)[C@@H]1[C@H](O)[C@H](O)CN1Cc1ccccc1 [Compound 5, N-Benzyl-1,4-dideoxy-1,4-imino-L-gulitol] | In solution | 17.1 | −2.2 | 5.5 | 13 ± 6 | – | – | 6 ± 1 | – | 3 | > 50 | > 50 | > 50 |
